Columns and labels:
[1] = molecular target: T1, P-type amylase (Calibzyme P) (Homo sapiens, UniProt P04746); assay: amylase isozyme activity assay with potassium thiocyanate as activator, P-type amylase sample; format: biochemical; conditions: for Change in absorbance, Containing Antibody (Composition A) / Change in absorbance, Without antibody (Composition B) / Relative sensitivity / Percent residual enzyme activity: P-type amylase; for Relative sensitivity: G3CNP at 900 mM = 100; for Percent residual enzyme activity: composition A/B
T1 construct: purchased International Reagents Corporation Calibzyme P
T1 sequence (P04746 16-511): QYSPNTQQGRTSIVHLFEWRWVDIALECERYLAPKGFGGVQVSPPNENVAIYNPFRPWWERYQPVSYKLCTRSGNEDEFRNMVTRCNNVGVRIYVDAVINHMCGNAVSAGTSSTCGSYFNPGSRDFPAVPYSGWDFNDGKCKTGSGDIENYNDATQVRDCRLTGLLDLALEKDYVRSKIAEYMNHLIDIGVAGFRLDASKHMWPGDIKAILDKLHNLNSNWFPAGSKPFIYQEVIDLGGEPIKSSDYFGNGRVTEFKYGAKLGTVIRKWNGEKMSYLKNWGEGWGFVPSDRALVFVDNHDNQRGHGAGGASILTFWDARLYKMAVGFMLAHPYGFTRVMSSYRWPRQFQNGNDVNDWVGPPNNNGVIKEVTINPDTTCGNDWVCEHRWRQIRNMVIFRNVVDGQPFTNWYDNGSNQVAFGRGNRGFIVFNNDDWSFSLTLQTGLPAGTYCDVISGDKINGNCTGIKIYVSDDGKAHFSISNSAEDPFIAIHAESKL
Description: A reagent for amylase isozyme activity assay comprising each composition as mentioned below was prepared. In the Table showing the composition, GalG2CNP (Example) is 2-chloro-4-nitrophenyl 4-O-β-D-galactopyranosylmaltoside, and G3CNP (Comparative Example) is 2-chloro-4-nitrophenylmaltotrioside.
S-type amylase-inhibiting antibody 88E8 (manufactured by Roche Diagnostics K.K.) 20 mg/L
S-type amylase-inhibiting antibody 66C7 (manufactured by Roche Diagnostics K.K.) 5 mg/L
(§1) Substrate (GalG2CNP (Example) or G3CNP (Comparative Example)) 2.6 mM
(§2) (2) P-type Amylase (Calibzyme P, Manufactured by International Reagents Corporation)
Each sample (0.05 mL was added to the reagent A (3 mL) and the reagent B (3 mL), respectively, and the mixtures were allowed to stand at 37° C. for 3 minutes. Then, the change in absorbance at 405 nm was assayed, and the change in absorbance per minute was calculated. The results are shown in Tables 1 and 2.
In the Tables, P is the case where P-type amylase was used as the sample, and S is the case where S-type amylase was used.
Percent residual enzyme activity (%)=(change in absorbance of composition A)/(change in absorbance of composition B)×100
Relative sensitivity (%)=(change in absorbance of composition B)/(change in absorbance of Comparative Example wherein potassium thiocyanate was 900 mM)×100

[2] = molecular target: T1, P-type amylase (Calibzyme P); assay: amylase isozyme activity assay with sodium azide as activator, P-type amylase sample; format: biochemical; conditions: for Percent residual enzyme activity: composition C/D
Description: S-type amylase inhibitory antibody 88E8 (manufactured by Roche Diagnostics K.K.) 20 mg/L
S-type amylase inhibitory antibody 66C7 (manufactured by Roche Diagnostics K.K.) 5 mg/L
as §1, §2
Each of the above-mentioned samples (0.05 mL) was added to respective reagent C and D (3 mL) and the mixtures were left standing at 37° C. for 3 minutes. Then, change in absorbance at 405 nm was assayed and change in absorbance per minute was calculated.
In the Tables, P is the case where P-type amylase was used as the sample, and S is the case where S-type amylase was used. The relative sensitivity of P and S is based on the change in absorbance of G3CNP as 100, wherein sodium azide was 300 mM.
Percent residual enzyme activity and relative sensitivity were calculated by the following formulas.
Percent residual enzyme activity (%)=(change in absorbance of composition C)/(change in absorbance of composition D)×100
Relative sensitivity (%)=(change in absorbance of composition D)/(change in absorbance of Comparative Example wherein sodium azide was 300 mM)×100

Compound: O=[N+]([O-])c1ccc(O[C@H]2O[C@H](CO)[C@@H](O[C@H]3O[C@H](CO)[C@@H](O[C@@H]4O[C@H](CO)[C@H](O)[C@H](O)[C@H]4O)[C@H](O)[C@H]3O)[C@H](O)[C@H]2O)c(Cl)c1 [GalG2CNP, 2-chloro-4-nitrophenyl 4-O-β-D-galactopyranosylmaltoside]
- Change in absorbance, Containing Antibody (Composition A) ([1]; potassium thiocyanate 0 mM): 26.2 mABS/min
- Change in absorbance, Without antibody (Composition B) ([1]; potassium thiocyanate 0 mM): 26.7 mABS/min
- Relative sensitivity ([1]; potassium thiocyanate 0 mM): 55.7%
- Percent residual enzyme activity ([1]; potassium thiocyanate 0 mM): 98.1%
- Change in absorbance, Containing Antibody (Composition A) ([1]; potassium thiocyanate 50 mM): 40.6 mABS/min
- Change in absorbance, Without antibody (Composition B) ([1]; potassium thiocyanate 50 mM): 42.1 mABS/min
- Relative sensitivity ([1]; potassium thiocyanate 50 mM): 87.9%
- Percent residual enzyme activity ([1]; potassium thiocyanate 50 mM): 96.4%
- Change in absorbance, Containing Antibody (Composition A) ([1]; potassium thiocyanate 100 mM): 49.3 mABS/min
- Change in absorbance, Without antibody (Composition B) ([1]; potassium thiocyanate 100 mM): 51.1 mABS/min
- Relative sensitivity ([1]; potassium thiocyanate 100 mM): 106.7%
- Percent residual enzyme activity ([1]; potassium thiocyanate 100 mM): 96.5%
- Change in absorbance, Containing Antibody (Composition A) ([1]; potassium thiocyanate 140 mM): 52.4 mABS/min
- Change in absorbance, Without antibody (Composition B) ([1]; potassium thiocyanate 140 mM): 56.0 mABS/min
- Relative sensitivity ([1]; potassium thiocyanate 140 mM): 116.9%
- Percent residual enzyme activity ([1]; potassium thiocyanate 140 mM): 93.6%
- Change in absorbance, Containing Antibody (Composition A) ([1]; potassium thiocyanate 200 mM): 59.5 mABS/min
- Change in absorbance, Without antibody (Composition B) ([1]; potassium thiocyanate 200 mM): 61.9 mABS/min
- Relative sensitivity ([1]; potassium thiocyanate 200 mM): 129.2%
- Percent residual enzyme activity ([1]; potassium thiocyanate 200 mM): 96.1%
- Change in absorbance, Containing Antibody (Composition A) ([1]; potassium thiocyanate 300 mM): 66.6 mABS/min
- Change in absorbance, Without antibody (Composition B) ([1]; potassium thiocyanate 300 mM): 69.1 mABS/min
- Relative sensitivity ([1]; potassium thiocyanate 300 mM): 144.3%
- Percent residual enzyme activity ([1]; potassium thiocyanate 300 mM): 96.4%
- Change in absorbance, Containing Antibody (Composition A) ([1]; potassium thiocyanate 400 mM): 70.3 mABS/min
- Change in absorbance, Without antibody (Composition B) ([1]; potassium thiocyanate 400 mM): 71.7 mABS/min
- Relative sensitivity ([1]; potassium thiocyanate 400 mM): 149.7%
- Percent residual enzyme activity ([1]; potassium thiocyanate 400 mM): 98.0%
- Change in absorbance, Containing Antibody (Composition A) ([1]; potassium thiocyanate 500 mM): 71.3 mABS/min
- Change in absorbance, Without antibody (Composition B) ([1]; potassium thiocyanate 500 mM): 70.9 mABS/min
- Relative sensitivity ([1]; potassium thiocyanate 500 mM): 148.0%
- Percent residual enzyme activity ([1]; potassium thiocyanate 500 mM): 100.6%
- Change in absorbance, Containing Antibody (Composition A) ([1]; potassium thiocyanate 600 mM): 70.4 mABS/min
- Change in absorbance, Without antibody (Composition B) ([1]; potassium thiocyanate 600 mM): 68.0 mABS/min
- Relative sensitivity ([1]; potassium thiocyanate 600 mM): 142.0%
- Percent residual enzyme activity ([1]; potassium thiocyanate 600 mM): 103.5%
- Change in absorbance, Containing Antibody (Composition A) ([1]; potassium thiocyanate 700 mM): 67.9 mABS/min
- Change in absorbance, Without antibody (Composition B) ([1]; potassium thiocyanate 700 mM): 67.2 mABS/min
- Relative sensitivity ([1]; potassium thiocyanate 700 mM): 140.3%
- Percent residual enzyme activity ([1]; potassium thiocyanate 700 mM): 101.0%
- Change in absorbance, Containing Antibody (Composition A) ([1]; potassium thiocyanate 800 mM): 63.7 mABS/min
- Change in absorbance, Without antibody (Composition B) ([1]; potassium thiocyanate 800 mM): 62.6 mABS/min
- Relative sensitivity ([1]; potassium thiocyanate 800 mM): 130.7%
- Percent residual enzyme activity ([1]; potassium thiocyanate 800 mM): 101.8%
- Change in absorbance, Containing Antibody (Composition A) ([1]; potassium thiocyanate 900 mM): 61.6 mABS/min
- Change in absorbance, Without antibody (Composition B) ([1]; potassium thiocyanate 900 mM): 60.1 mABS/min
- Relative sensitivity ([1]; potassium thiocyanate 900 mM): 125.5%
- Percent residual enzyme activity ([1]; potassium thiocyanate 900 mM): 102.5%
- relative sensitivity of P-type amylase as multiple of the standard sensitivity ([1]; potassium thiocyanate 200 mM, standard = G3CNP at 900 mM): about 1.3
- Change in absorbance, Containing Antibody (Composition C) ([2]; sodium azide 0 mM): 26.4 mABS/min
- Change in absorbance, Without antibody (Composition D) ([2]; sodium azide 0 mM): 26.3 mABS/min
- Relative sensitivity ([2]; sodium azide 0 mM, G3CNP at 300 mM = 100): 57.7%
- Percent residual enzyme activity ([2]; sodium azide 0 mM): 100.4%
- Change in absorbance, Containing Antibody (Composition C) ([2]; sodium azide 30 mM): 43.6 mABS/min
- Change in absorbance, Without antibody (Composition D) ([2]; sodium azide 30 mM): 44.6 mABS/min
- Relative sensitivity ([2]; sodium azide 30 mM, G3CNP at 300 mM = 100): 97.8%
- Relative sensitivity ([2]; sodium azide 30 mM, G3CNP at 300 mM = 100, listed as Example): about 98%
- Percent residual enzyme activity ([2]; sodium azide 30 mM): 97.8%
- Change in absorbance, Containing Antibody (Composition C) ([2]; sodium azide 60 mM): 52.5 mABS/min
- Change in absorbance, Without antibody (Composition D) ([2]; sodium azide 60 mM): 52.8 mABS/min
- Relative sensitivity ([2]; sodium azide 60 mM, G3CNP at 300 mM = 100): 115.8%
- Percent residual enzyme activity ([2]; sodium azide 60 mM): 99.4%
- Change in absorbance, Containing Antibody (Composition C) ([2]; sodium azide 90 mM): 60.1 mABS/min
- Change in absorbance, Without antibody (Composition D) ([2]; sodium azide 90 mM): 59.6 mABS/min
- Relative sensitivity ([2]; sodium azide 90 mM, G3CNP at 300 mM = 100): 130.7%
- Percent residual enzyme activity ([2]; sodium azide 90 mM): 100.8%
- Change in absorbance, Containing Antibody (Composition C) ([2]; sodium azide 120 mM): 64.9 mABS/min
- Change in absorbance, Without antibody (Composition D) ([2]; sodium azide 120 mM): 63.4 mABS/min
- Relative sensitivity ([2]; sodium azide 120 mM, G3CNP at 300 mM = 100): 139.0%
- Percent residual enzyme activity ([2]; sodium azide 120 mM): 102.4%
- Change in absorbance, Containing Antibody (Composition C) ([2]; sodium azide 150 mM): 68.2 mABS/min
- Change in absorbance, Without antibody (Composition D) ([2]; sodium azide 150 mM): 68.4 mABS/min
- Relative sensitivity ([2]; sodium azide 150 mM, G3CNP at 300 mM = 100): 150.0%
- Percent residual enzyme activity ([2]; sodium azide 150 mM): 99.7%
- Change in absorbance, Containing Antibody (Composition C) ([2]; sodium azide 200 mM): 72.2 mABS/min
- Change in absorbance, Without antibody (Composition D) ([2]; sodium azide 200 mM): 70.1 mABS/min
- Relative sensitivity ([2]; sodium azide 200 mM, G3CNP at 300 mM = 100): 153.7%
- Percent residual enzyme activity ([2]; sodium azide 200 mM): 103.0%
- Change in absorbance, Containing Antibody (Composition C) ([2]; sodium azide 250 mM): 74.4 mABS/min
- Change in absorbance, Without antibody (Composition D) ([2]; sodium azide 250 mM): 72.4 mABS/min
- Relative sensitivity ([2]; sodium azide 250 mM, G3CNP at 300 mM = 100): 158.8%
- Percent residual enzyme activity ([2]; sodium azide 250 mM): 102.8%
- Change in absorbance, Containing Antibody (Composition C) ([2]; sodium azide 300 mM): 76.8 mABS/min
- Change in absorbance, Without antibody (Composition D) ([2]; sodium azide 300 mM): 75.6 mABS/min
- Relative sensitivity ([2]; sodium azide 300 mM, G3CNP at 300 mM = 100): 165.8%
- Percent residual enzyme activity ([2]; sodium azide 300 mM): 101.6%

From patent US6350585B1, “Reagent for assay of amylase isozyme activity” (priority 1998, dated 2002)
